Experiment: recombinant barcode read abundance after kanamycin selection (control-corrected) (log10(CPM+1)); higher = more efficient recombination; sequences stand for … in AGTGCAGAGAAAATCGGCCAGTTTTCTCTGCCTGCAGTCCGCATGCCGT…AGATTTATGCAGCGGACTGCCTTTCTCCCAAAGTGATAAACCGGACAGTATCATGGACCGGTTTTCCCGGTAATCCGTATTTGCAAGGTTGGTTTCACT; site = the 11-nt target
How it was run: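 Reported as log10(CPM+1), each value stands for recombination efficiency. That efficiency is the averaged, control-corrected counts per million of barcodes found at recombinant junctions. Cells from a pooled E. coli library pairing targets with IS621 bridge RNA target-binding loops were plated twice on chloramphenicol/ampicillin LB agar (control) and twice on chloramphenicol/ampicillin/kanamycin with 0.1 mM IPTG.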
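Also: IS621 recombinase and bridge RNA in Escherichia coli cells.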

Sequence | recombinant barcode read abundance (log10)
CGAACATCTTGGGTTCTAACCTGTTGCTT (site ACCTACCCTCC) | 0
CGAACATCTTGGGTTCTAACCTGTTGCTT (site CGAACATCTAA) | 0.144
CGAACGACTTGGGTTCTAACCTGTTGCCT (site CGAACGACTAA) | 0.157
CGAACGACTTGGGTTCTAACCTGTTGCCT (site CGAACGACTAG) | 0.259
CGAACTACTTGGGTTCTAACCTGTTGCGT (site CGAACTACTAA) | 0.22
CGAACTACTTGGGTTCTAACCTGTTGCGT (site CGAACTACTAC) | 0.143
CGAACTACTTGGGTTCTAACCTGTTGCGT (site CGAACTACTAG) | 0.109
CGAACTACTTGGGTTCTAACCTGTTGCGT (site CGAACTACTAT) | 0.0569
CGAAGATCTTGGGTTCTAACCTGTTGCCT (site CAAAGATCTAG) | 0.142
CGAAGATCTTGGGTTCTAACCTGTTGCCT (site CCAAGATCTAG) | 0
CGAAGATCTTGGGTTCTAACCTGTTGCCT (site CGAAGATCTAG) | 0.273
CGAAGATCTTGGGTTCTAACCTGTTGCCT (site CTAAGATCTAG) | 0.069
CGACACTCTTGGGTTCTAACCTGTTGCCT (site CAACACTCTAG) | 0.107
CGACACTCTTGGGTTCTAACCTGTTGCCT (site CCACACTCTAG) | 0.164
CGACACTCTTGGGTTCTAACCTGTTGCCT (site CGACACTCTAG) | 0.251
CGACACTCTTGGGTTCTAACCTGTTGCCT (site CTACACTCTAG) | 0.0214
CGACAGTCTTGGGTTCTAACCTGTTGCCT (site CGACAGTCTAG) | 0.687
CGACAGTCTTGGGTTCTAACCTGTTGCCT (site TAGATTCCTTT) | 0.201
CGACATACTTGGGTTCTAACCTGTTGCGT (site CGACATACTAC) | 0.593
CGACATACTTGGGTTCTAACCTGTTGCGT (site GGACATGCTAC) | 0.0511
CGACCCTCTTGGGTTCTAACCTGTTGCTT (site ACACCCTCTAA) | 0.178
CGACCCTCTTGGGTTCTAACCTGTTGCTT (site CGACCCTCTAA) | 1.39

Sequence | recombinant barcode read abundance (log10)
CGACCTACTTGGGTTCTAACCTGTTGCTA (site CGACCTACTTA) | 0.088
CGACCTACTTGGGTTCTAACCTGTTGCTA (site GTACCTACTTA) | 0.17
CGACCTGCTTGGGTTCTAACCTGTTGCCT (site CGACCTGCTAG) | 0.246
CGACCTGCTTGGGTTCTAACCTGTTGCCT (site CGCCCTACTAG) | 0.249
CGACGAACTTGGGTTCTAACCTGTTGCCT (site CGACGAACTAG) | 0.201
CGACGAACTTGGGTTCTAACCTGTTGCCT (site GTCAATCCTCC) | 0.0212
CGACGTCCTTGGGTTCTAACCTGTTGCGG (site CGACGTCCTCC) | 1.74
CGACGTCCTTGGGTTCTAACCTGTTGCGG (site TGAAGTCCTCC) | 0.00826
CGACTTACTTGGGTTCTAACCTGTTGCAT (site ACGGGCTCTGA) | 0.103
CGACTTACTTGGGTTCTAACCTGTTGCAT (site CGACTTACTAT) | 0.0348
CGAGCTCCTTGGGTTCTAACCTGTTGCCT (site CGAGCTCCTAA) | 0.763
CGAGCTCCTTGGGTTCTAACCTGTTGCCT (site CGAGCTCCTAC) | 0.582
CGAGCTCCTTGGGTTCTAACCTGTTGCCT (site CGAGCTCCTAG) | 1.24
CGAGCTCCTTGGGTTCTAACCTGTTGCCT (site CGAGCTCCTAT) | 0.157
CGAGGCCCTTGGGTTCTAACCTGTTGCTT (site CGAGGCCCTAA) | 1.93
CGAGGCCCTTGGGTTCTAACCTGTTGCTT (site GTCCTATCTGT) | 0.0488
CGAGTGACTTGGGTTCTAACCTGTTGCCA (site CGAGTGACTTG) | 0.906
CGAGTGACTTGGGTTCTAACCTGTTGCCA (site TTCCGTCCTAA) | 0.382
CGATCGACTTGGGTTCTAACCTGTTGCAG (site CGACCGACTCT) | 0.401
CGATCGACTTGGGTTCTAACCTGTTGCAG (site CGATCGACTCT) | 0.809
CGATCGCCTTGGGTTCTAACCTGTTGCCT (site CGATCGCCTAG) | 0.339
CGATCGCCTTGGGTTCTAACCTGTTGCCT (site GGACCGCCTAG) | 0.0952

Sequence | recombinant barcode read abundance (log10)
CGATGTGCTTGGGTTCTAACCTGTTGCCT (site CGATGTCCTAG) | 0.334
CGATGTGCTTGGGTTCTAACCTGTTGCCT (site CGATGTGCTAG) | 0.535
CGATTTCCTTGGGTTCTAACCTGTTGCAT (site CGATTTCCTAG) | 0
CGATTTCCTTGGGTTCTAACCTGTTGCAT (site CGATTTCCTAT) | 0.0511
CGCCATCCTTGGGTTCTAACCTGTTGCAT (site CGCCATCCTAT) | 0.134
CGCCATCCTTGGGTTCTAACCTGTTGCAT (site CGCCCTCCTAT) | 0.227
CGCCATCCTTGGGTTCTAACCTGTTGCAT (site CGCCGTCCTAT) | 0.0349
CGCCATCCTTGGGTTCTAACCTGTTGCAT (site CGCCTTCCTAT) | 0.569
CGCCCACCTTGGGTTCTAACCTGTTGCCT (site CGCCCACCTAG) | 0.0145
CGCCCACCTTGGGTTCTAACCTGTTGCCT (site CTCCAACCTAG) | 0
CGCCCTACTTGGGTTCTAACCTGTTGCCT (site CGACCTGCTAG) | 0.236
CGCCCTACTTGGGTTCTAACCTGTTGCCT (site CGCCCTACTAG) | 0.239
CGCCGTCCTTGGGTTCTAACCTGTTGCAT (site CGCCATCCTAT) | 0.0426
CGCCGTCCTTGGGTTCTAACCTGTTGCAT (site CGCCCTCCTAT) | 0.103
CGCCGTCCTTGGGTTCTAACCTGTTGCAT (site CGCCGTCCTAT) | 0.279
CGCCGTCCTTGGGTTCTAACCTGTTGCAT (site CGCCTTCCTAT) | 0.099
CGCCTAGCTTGGGTTCTAACCTGTTGCCT (site CGCCTAGCTAG) | 0.206
CGCCTAGCTTGGGTTCTAACCTGTTGCCT (site CTCCTACCTAG) | 0.0925
CGCCTCCCTTGGGTTCTAACCTGTTGCCT (site CGCCTCACTAG) | 0.179
CGCCTCCCTTGGGTTCTAACCTGTTGCCT (site CGCCTCCCTAG) | 0.446
CGCCTCCCTTGGGTTCTAACCTGTTGCCT (site CGCCTCGCTAG) | 0
CGCCTCCCTTGGGTTCTAACCTGTTGCCT (site CGCCTCTCTAG) | 0.0882

Sequence | recombinant barcode read abundance (log10)
CGCCTCGCTTGGGTTCTAACCTGTTGCCT (site CGCCTCACTAG) | 0.07
CGCCTCGCTTGGGTTCTAACCTGTTGCCT (site CGCCTCCCTAG) | 0.16
CGCCTCGCTTGGGTTCTAACCTGTTGCCT (site CGCCTCGCTAG) | 0.0366
CGCCTCGCTTGGGTTCTAACCTGTTGCCT (site CGCCTCTCTAG) | 0.259
CGCGATCCTTGGGTTCTAACCTGTTGCCT (site CGCGATCCTAG) | 0.431
CGCGATCCTTGGGTTCTAACCTGTTGCCT (site CGCGCTCCTAG) | 0.0201
CGCGATCCTTGGGTTCTAACCTGTTGCCT (site CGCGGTCCTAG) | 0.468
CGCGATCCTTGGGTTCTAACCTGTTGCCT (site CGCGTTCCTAG) | 0.265
CGCGCAACTTGGGTTCTAACCTGTTGCCT (site CGCGCAACTAG) | 0.0454
CGCGCAACTTGGGTTCTAACCTGTTGCCT (site CGCGTAACTAG) | 0.185
CGCGGGTCTTGGGTTCTAACCTGTTGCTT (site CGCGAATCTAA) | 0.236
CGCGGGTCTTGGGTTCTAACCTGTTGCTT (site CGCGGGTCTAA) | 0.88
CGCGTTCCTTGGGTTCTAACCTGTTGCCT (site CGCGATCCTAG) | 0.262
CGCGTTCCTTGGGTTCTAACCTGTTGCCT (site CGCGCTCCTAG) | 0.608
CGCGTTCCTTGGGTTCTAACCTGTTGCCT (site CGCGGTCCTAG) | 0.542
CGCGTTCCTTGGGTTCTAACCTGTTGCCT (site CGCGTTCCTAG) | 0.197
CGCTGACCTTGGGTTCTAACCTGTTGCTT (site CGCTGACCTAA) | 0.0663
CGCTGACCTTGGGTTCTAACCTGTTGCTT (site CGCTGCCCTAA) | 0.208
CGCTGACCTTGGGTTCTAACCTGTTGCTT (site CGCTGGCCTAA) | 0.116
CGCTGACCTTGGGTTCTAACCTGTTGCTT (site CGCTGTCCTAA) | 0.231
